Experimental data taken from patent US11524977B2, “Ultrasound-assisted simulated digestion method of milk protein active peptide and application thereof in health foods” (JIANGSU UNIVERSITY, priority 2017, dated 2022).
Values joined by “and” are separate entries in the source; they are usually repeats but may differ in a detail not shown here. Equal entries are not always repeated.

Tests used:
[1] = literature report, in words; cited from earlier work
[2] = test system: VCAM-1; conditions: synthesized peptide 100 μM
Protocol: (§1) The peptides were subjected to study the anti-inflammatory activity; the levels of intercellular adhesion molecule (ICAM-1) and vascular cell adhesion molecule (VCAM-1) expressed in EA.hy926 cells were detected by Western blot as inflammatory biomarkers. The EA, hy926 cells with passage number <12 were grown in 48-well plates. The cells reaching 80-90% confluence were treated with various concentrations (2.5 mg/mL of hydrolysates and digests, 0.2 mM and 3.0 mM of synthetic peptides) of the samples for 18 h. Then the cells were stimulated with TNF-α at 10 ng/mL and incubated for an additional 6 h in order to induce inflammation.
(§2) After the treatment period, the culture medium of the EA. hy926 cells was discarded and a boiling Laemmle buffer containing 0.2% TritonX-100 and 50 μM dithiothreitol was added to lysate the cells. The cell lysates were then run on 9% sodium dodecyl sulfate polyacrylamide gel electrophoresis. The gels were transferred onto nitrocellulose membranes, and immunoblotted with anti-ICAM-1/anti-VCAM-1 antibodies. The concentration of antibody to α-tubulin used was 0.4 μg/mL, while that for all other antibodies was 0.1 μg/mL. The protein bands were scanned using Licor Odyssey BioImager (Licor Biosciences, Lincoln, NB, USA) and quantified by densitometry using Image Studio Lite 5.2.

[3] = test system: ICAM-1; conditions: synthesized peptide 100 μM
Protocol: as §1, §2

Row | Substance | antibacterial activity [1] | VCAM-1 (TNF-α) [2] | ICAM-1 (%TNF-α) [3]
1 | AASDISLLDAQSAPLR [peptide obtained by enzymolysis of β-LG] | strong antibacterial activity |  | 
2 | IPAVFK: peptide obtained by enzymolysis of β-LG (UniProt P02754 94-99, looked up, fragment) | strong antibacterial activity |  | 
3 | Phe-Tyr-Gln-Ala [FYQA] |  | 41.3 TNF-α and 41.3 ± 10.6 TNF-α | 56.6 %TNF-α and 56.6 ± 9.0 %TNF-α
4 | VLVLDTDYK [peptide obtained by enzymolysis of β-LG] | strong antibacterial activity |  | 
5 | Leu-Gln-Tyr [LQY] |  | 33.7 TNF-α and 33.7 ± 6.9 TNF-α | 48.2 %TNF-α and 48.2 ± 6.3 %TNF-α
